Test results as given in patent publication US20080008674A1, “Use of C-glycoside derivative for improving the skin's barrier function” (L'OREAL, priority 2006, published 2008).
Marks after values point to notes of the source that are not given here.

Tested on: reconstructed epidermis (Episkin J13)
Assay: Penetration of radiolabelled caffeine through reconstructed human epidermis (barrier function)
Assay type: cell-based
Conditions: for passage of [14C]-caffeine, percentage of passage relative to an untreated control: 5 days treatment
Procedure: The efficacy of the barrier function of a skin may be evaluated by measuring the passage through it of a labelled molecule, for instance radiolabelled caffeine.
Skin with an improved barrier function is thus characterized in that it slows down, or even reduces, the passage of the said molecule through its epidermis.
Two batches of reconstructed epidermis (Episkin J13) (batches 1 and 2) are treated for 5 days with the product C-β-D-xylopyranoside-n-propan-2-one, which is applied in the culture medium at a final concentration of 0.2% and 0.04% by weight/volume.
Vitamin C is used as reference molecule at a concentration of 200 μg/ml, in systemic treatment.
After 5 days of culturing, 100 μl and 2 UCi/ml, i.e. 0.04 mM of [^14C]-caffeine (radiolabelled caffeine) and 0.35 mM of cold caffeine (non-radiolabelled caffeine) are applied to the surface, and kinetics of uptake into the medium are determined at eight different times.
The results are expressed as a percentage of passage relative to an untreated control.

In the case of `CC(=O)C[C@@H]1OC[C@@H](O)[C@H](O)[C@H]1O` [C-β-D-xylopyranoside-n-propan-2-one], the “passage of [14C]-caffeine, percentage of passage relative to an untreated control” value (Batch 1 of reconstructed epidermis, 0.04% AM, sample taken at 1 h 30) is reported as 52%, the “passage of [14C]-caffeine, percentage of passage relative to an untreated control” value (Batch 1 of reconstructed epidermis, 0.04% AM, sample taken at 3 h) is reported as 66% and the “passage of [14C]-caffeine, percentage of passage relative to an untreated control” value (Batch 1 of reconstructed epidermis, 0.04% AM, sample taken at 4 h) is reported as 64 * %. For the same molecule, the “passage of [14C]-caffeine, percentage of passage relative to an untreated control” value (Batch 1 of reconstructed epidermis, 0.04% AM, sample taken at 5 h) was 73 * %, the “passage of [14C]-caffeine, percentage of passage relative to an untreated control” value (Batch 1 of reconstructed epidermis, 0.04% AM, sample taken at 6 h) was 70 * % and the “passage of [14C]-caffeine, percentage of passage relative to an untreated control” value (Batch 1 of reconstructed epidermis, 0.04% AM, sample taken at 7 h) was 69 * %. The “passage of [14C]-caffeine, percentage of passage relative to an untreated control” value (Batch 1 of reconstructed epidermis, 0.04% AM, sample taken at 9 h) was 77 * %, the “passage of [14C]-caffeine, percentage of passage relative to an untreated control” value (Batch 1 of reconstructed epidermis, 0.04% AM, sample taken at 24 h) was 75 * % and the “passage of [14C]-caffeine, percentage of passage relative to an untreated control” value (Batch 1 of reconstructed epidermis, 0.2% AM, sample taken at 1 h 30) was 66%. For the same molecule, the “passage of [14C]-caffeine, percentage of passage relative to an untreated control” value (Batch 1 of reconstructed epidermis, 0.2% AM, sample taken at 3 h) was 94%, the “passage of [14C]-caffeine, percentage of passage relative to an untreated control” value (Batch 1 of reconstructed epidermis, 0.2% AM, sample taken at 4 h) was 59 * % and the “passage of [14C]-caffeine, percentage of passage relative to an untreated control” value (Batch 1 of reconstructed epidermis, 0.2% AM, sample taken at 5 h) was 63 * %. The “passage of [14C]-caffeine, percentage of passage relative to an untreated control” value (Batch 1 of reconstructed epidermis, 0.2% AM, sample taken at 6 h) was 63 * %, the “passage of [14C]-caffeine, percentage of passage relative to an untreated control” value (Batch 1 of reconstructed epidermis, 0.2% AM, sample taken at 7 h) was 66 * % and the “passage of [14C]-caffeine, percentage of passage relative to an untreated control” value (Batch 1 of reconstructed epidermis, 0.2% AM, sample taken at 9 h) was 79 * %. The “passage of [14C]-caffeine, percentage of passage relative to an untreated control” value (Batch 1 of reconstructed epidermis, 0.2% AM, sample taken at 24 h) was 70 * %, the “passage of [14C]-caffeine, percentage of passage relative to an untreated control” value (Batch 2 of reconstructed epidermis, 0.04% AM, sample taken at 1 h) was 143% and the “passage of [14C]-caffeine, percentage of passage relative to an untreated control” value (Batch 2 of reconstructed epidermis, 0.04% AM, sample taken at 2 h) was 65 * %. For the same molecule, the “passage of [14C]-caffeine, percentage of passage relative to an untreated control” value (Batch 2 of reconstructed epidermis, 0.04% AM, sample taken at 3 h) was 92%, the “passage of [14C]-caffeine, percentage of passage relative to an untreated control” value (Batch 2 of reconstructed epidermis, 0.04% AM, sample taken at 4 h) was 78 * % and the “passage of [14C]-caffeine, percentage of passage relative to an untreated control” value (Batch 2 of reconstructed epidermis, 0.04% AM, sample taken at 5 h) was 84%. The “passage of [14C]-caffeine, percentage of passage relative to an untreated control” value (Batch 2 of reconstructed epidermis, 0.04% AM, sample taken at 6 h) was 80 * %, the “passage of [14C]-caffeine, percentage of passage relative to an untreated control” value (Batch 2 of reconstructed epidermis, 0.04% AM, sample taken at 7 h) was 91% and the “passage of [14C]-caffeine, percentage of passage relative to an untreated control” value (Batch 2 of reconstructed epidermis, 0.04% AM, sample taken at 8 h) was 88 * %. The “passage of [14C]-caffeine, percentage of passage relative to an untreated control” value (Batch 2 of reconstructed epidermis, 0.04% AM, sample taken at 9 h) was 93%, the “passage of [14C]-caffeine, percentage of passage relative to an untreated control” value (Batch 2 of reconstructed epidermis, 0.04% AM, sample taken at 10 h) was 85 * % and the “passage of [14C]-caffeine, percentage of passage relative to an untreated control” value (Batch 2 of reconstructed epidermis, 0.04% AM, sample taken at 24 h) was 99%. For the same molecule, the “passage of [14C]-caffeine, percentage of passage relative to an untreated control” value (Batch 2 of reconstructed epidermis, 0.2% AM, sample taken at 1 h) was 162%, the “passage of [14C]-caffeine, percentage of passage relative to an untreated control” value (Batch 2 of reconstructed epidermis, 0.2% AM, sample taken at 2 h) was 61 * % and the “passage of [14C]-caffeine, percentage of passage relative to an untreated control” value (Batch 2 of reconstructed epidermis, 0.2% AM, sample taken at 3 h) was 82%. The “passage of [14C]-caffeine, percentage of passage relative to an untreated control” value (Batch 2 of reconstructed epidermis, 0.2% AM, sample taken at 4 h) was 67 * %, the “passage of [14C]-caffeine, percentage of passage relative to an untreated control” value (Batch 2 of reconstructed epidermis, 0.2% AM, sample taken at 5 h) was 75 * % and the “passage of [14C]-caffeine, percentage of passage relative to an untreated control” value (Batch 2 of reconstructed epidermis, 0.2% AM, sample taken at 6 h) was 75 * %. The “passage of [14C]-caffeine, percentage of passage relative to an untreated control” value (Batch 2 of reconstructed epidermis, 0.2% AM, sample taken at 7 h) was 84 * %, the “passage of [14C]-caffeine, percentage of passage relative to an untreated control” value (Batch 2 of reconstructed epidermis, 0.2% AM, sample taken at 8 h) was 80 * % and the “passage of [14C]-caffeine, percentage of passage relative to an untreated control” value (Batch 2 of reconstructed epidermis, 0.2% AM, sample taken at 9 h) was 88%. For the same molecule, the “passage of [14C]-caffeine, percentage of passage relative to an untreated control” value (Batch 2 of reconstructed epidermis, 0.2% AM, sample taken at 10 h) was 80 * %, the “passage of [14C]-caffeine, percentage of passage relative to an untreated control” value (Batch 2 of reconstructed epidermis, 0.2% AM, sample taken at 24 h) was 95% and the “slowing down of caffeine passage compared with vitamin C (reference molecule)” value (result in words, comparison with vitamin C 200 μg/ml) was “greater”. For the same molecule, the “effect on the passage of the radiolabelled caffeine through the reconstructed epidermides (barrier function)” value (result in words, two batches of reconstructed epidermis) was “slows down the passage of the radiolabelled caffeine”.
For `O=C1O[C@H]([C@@H](O)CO)C(O)=C1O` [Vitamin C, reference compound], the “passage of [14C]-caffeine, percentage of passage relative to an untreated control” value (Batch 1 of reconstructed epidermis, 200 μg/ml, sample taken at 1 h 30) was 81%, the “passage of [14C]-caffeine, percentage of passage relative to an untreated control” value (Batch 1 of reconstructed epidermis, 200 μg/ml, sample taken at 3 h) was 95% and the “passage of [14C]-caffeine, percentage of passage relative to an untreated control” value (Batch 1 of reconstructed epidermis, 200 μg/ml, sample taken at 4 h) was 81%. For the same molecule, the “passage of [14C]-caffeine, percentage of passage relative to an untreated control” value (Batch 1 of reconstructed epidermis, 200 μg/ml, sample taken at 5 h) was 80 * %, the “passage of [14C]-caffeine, percentage of passage relative to an untreated control” value (Batch 1 of reconstructed epidermis, 200 μg/ml, sample taken at 6 h) was 86% and the “passage of [14C]-caffeine, percentage of passage relative to an untreated control” value (Batch 1 of reconstructed epidermis, 200 μg/ml, sample taken at 7 h) was 75 * %. For the same molecule, the “passage of [14C]-caffeine, percentage of passage relative to an untreated control” value (Batch 1 of reconstructed epidermis, 200 μg/ml, sample taken at 9 h) was 85%, the “passage of [14C]-caffeine, percentage of passage relative to an untreated control” value (Batch 1 of reconstructed epidermis, 200 μg/ml, sample taken at 24 h) was 85% and the “passage of [14C]-caffeine, percentage of passage relative to an untreated control” value (Batch 2 of reconstructed epidermis, 200 μg/ml, sample taken at 1 h) was 117%. The “passage of [14C]-caffeine, percentage of passage relative to an untreated control” value (Batch 2 of reconstructed epidermis, 200 μg/ml, sample taken at 2 h) was 77 * %, the “passage of [14C]-caffeine, percentage of passage relative to an untreated control” value (Batch 2 of reconstructed epidermis, 200 μg/ml, sample taken at 3 h) was 84% and the “passage of [14C]-caffeine, percentage of passage relative to an untreated control” value (Batch 2 of reconstructed epidermis, 200 μg/ml, sample taken at 4 h) was 86 * %. For the same molecule, the “passage of [14C]-caffeine, percentage of passage relative to an untreated control” value (Batch 2 of reconstructed epidermis, 200 μg/ml, sample taken at 5 h) was 71 * %, the “passage of [14C]-caffeine, percentage of passage relative to an untreated control” value (Batch 2 of reconstructed epidermis, 200 μg/ml, sample taken at 6 h) was 94% and the “passage of [14C]-caffeine, percentage of passage relative to an untreated control” value (Batch 2 of reconstructed epidermis, 200 μg/ml, sample taken at 7 h) was 95%. The “passage of [14C]-caffeine, percentage of passage relative to an untreated control” value (Batch 2 of reconstructed epidermis, 200 μg/ml, sample taken at 8 h) was 96%, the “passage of [14C]-caffeine, percentage of passage relative to an untreated control” value (Batch 2 of reconstructed epidermis, 200 μg/ml, sample taken at 9 h) was 85% and the “passage of [14C]-caffeine, percentage of passage relative to an untreated control” value (Batch 2 of reconstructed epidermis, 200 μg/ml, sample taken at 10 h) was 95%. The “passage of [14C]-caffeine, percentage of passage relative to an untreated control” value (Batch 2 of reconstructed epidermis, 200 μg/ml, sample taken at 24 h) was 99%.
